Assay [1] has as its system KOS strain of HSV-1 virus. Put plainly: HSV-1 qPCR assay. The conditions noted are these: Human alphaherpesvirus 1, 24 h.
The target in the next assay is HSV-polymerase (Human herpesvirus 1 (strain 17) (HHV-1) (Human herpes simplex virus 1), UniProt P04293). Put plainly: biochemical.
In the next assay the test system is CMV. Description: microbe, parasite or virus in culture. Type of assay: cell-based.
A further assay has as its target CMV-polymerase (Human cytomegalovirus (strain AD169) (HHV-5) (Human herpesvirus 5), UniProt P08546). Description: biochemical.
Another assay relates to VZV Ellen strain. Put plainly: VZV qPCR assay. The following applies: Human alphaherpesvirus 3, MRC5, 48 h, read-out: Cellular activity against VZV (EC50). On the technique in general: In qPCR the cycle at which signal appears reflects the starting amount.
In assay [2] the test system is EBV (SNU-719 cells latently infected). Description: EBV qPCR assay. The following applies: human gammaherpesvirus 4, 72 h, read-out: Cellular activity against EBV (EC50).
[3] abbreviates: read-out: Cellular activity against HSV-1 (EC50), NN-NHDF cells, MOI 0.01, 24 hrs, qPCR.
Where [4] appears, read: Human betaherpesvirus 5, 72 h, read-out: CMV-Luc Cellular EC50, NN-NHDF cells, MOI 1, 72 hrs.
Where [5] appears, read: Human betaherpesvirus 5, read-out: Cellular activity against CMV (EC50), Table 18.
[6] abbreviates: read-out: CMV-polymerase Biochemical IC50.
[7] abbreviates: read-out: Cellular activity against HSV-1 (EC50).

Read-outs that look alike come from different tables or passages of the source.

With `Cn1nc(C(=O)NCc2ccc(C#N)cc2)c2c1C(=O)N(CC1(S(=O)(=O)C(C)(C)COCCN)CC1)CC2` [Example 92, 6-((1-((1-(2-Aminoethoxy)-2-methylpropan-2-yl)sulfonyl)cyclopropyl)methyl)-N-(4-cyanobenzyl)-1-methyl-7-oxo-4,5,6,7-tetrahydro-1H-pyrazolo[3,4-c]pyridine-3-carboxamide], the EC50 in assay [1] (setting [3]) is 30 nM; in the assay on CMV (setting [4]), 12 nM; in the assay with CMV (setting [5]), 12 nM. For the same compound, the IC50 amounted to 30 nM at HSV-polymerase and 1 nM on CMV-polymerase (setting [6]).
Regarding `Cn1nc(C(=O)NCc2ccc(Cl)cc2)c2c1C(=O)N(CC1(S(=O)(=O)C3CC3)CC1)CC2` [Example 4, N-(4-Chlorobenzyl)-6-((1-(cyclopropylsulfonyl)cyclopropyl)methyl)-1-methyl-7-oxo-4,5,6,7-tetrahydro-1H-pyrazolo[3,4-c]pyridine-3-carboxamide], the EC50 in assay [1] (setting [3]) came out at 64 nM; with CMV (setting [4]), 23 nM; in the assay with CMV (setting [5]), 23 nM; with VZV Ellen strain, 8 nM. For the same compound, the IC50 at CMV-polymerase (setting [6]) was 2 nM.
On to `Cn1nc(C(=O)NCc2ccc(Cl)cc2)c2c1C(=O)N(CC1(S(=O)(=O)C(C)(C)C(O)CN)CC1)CC2` (single isomer, unassigned) [Example 200, (R)- or (S)-6-((1-((4-Amino-3-hydroxy-2-methylbutan-2-yl)sulfonyl)cyclopropyl)methyl)-N-(4-chlorobenzyl)-1-methyl-7-oxo-4,5,6,7-tetrahydro-1H-pyrazolo[3,4-c]pyridine-3-carboxamide], for which the EC50 in assay [1] (setting [3]) was 16 nM; in the assay with CMV (setting [4]), 5 nM; in the assay on CMV (setting [5]) it was 5 nM.
For the compound `CC1(S(=O)(=O)C2(CN3CCc4c(C(=O)NCc5ccc(C#N)cc5)nn(CCO)c4C3=O)CC2)CC1` [Example 217, N-(4-Cyanobenzyl)-1-(2-hydroxyethyl)-6-((1-((1-methylcyclopropyl)sulfonyl)cyclopropyl)methyl)-7-oxo-4,5,6,7-tetrahydro-1H-pyrazolo[3,4-c]pyridine-3-carboxamide], the EC50 in assay [1] (setting [3]) came out at 36 nM; in the assay with CMV (setting [4]) it was 29 nM; with CMV (setting [5]), 29 nM. Besides, at CMV-polymerase (setting [6]), the IC50 was 1 nM.
In the case of `CC(C)(CO)S(=O)(=O)C1(CN2CCc3c(C(=O)NCc4ccc(Cl)cc4)nn(CCO)c3C2=O)CC1` [Example 221, N-(4-chlorobenzyl)-6-((1-((1-hydroxy-2-methylpropan-2-yl)sulfonyl)cyclopropyl)methyl)-1-(2-hydroxyethyl)-7-oxo-4,5,6,7-tetrahydro-1H-pyrazolo[3,4-c]pyridine-3-carboxamide], the EC50 in assay [1] (setting [3]) is 10 nM; in the assay on CMV (setting [4]), 17 nM; in the assay on CMV (setting [5]), 17 nM. Moreover, the IC50 at CMV-polymerase (setting [6]) is 1 nM.
Turning to `N#Cc1ccc(CNC(=O)c2nn(CCO)c3c2CCN(CC2(S(=O)(=O)C4CC4)CC2)C3=O)cc1` [Example 216, N-(4-cyanobenzyl)-6-((1-(cyclopropylsulfonyl)cyclopropyl)methyl)-1-(2-hydroxyethyl)-7-oxo-4,5,6,7-tetrahydro-1H-pyrazolo[3,4-c]pyridine-3-carboxamide], the EC50 came to 112 nM in assay [1] (setting [7]); 67 nM in the assay with CMV (setting [4]); 67 nM with CMV (setting [5]); 28 nM in assay [2]; 109 nM in the assay on VZV Ellen strain. The IC50 at CMV-polymerase (setting [6]) was 2 nM.
In the case of `Cn1nc(C(=O)NCc2ccc(C#N)cc2)c2c1C(=O)N(CC1(S(=O)(=O)C3CC3)CC1)CC2` [Example 3, N-(4-cyanobenzyl)-6-((1-(cyclopropylsulfonyl)cyclopropyl)methyl)-1-methyl-7-oxo-4,5,6,7-tetrahydro-1H-pyrazolo[3,4-c]pyridine-3-carboxamide], the EC50 worked out at 33 nM in assay [1] (setting [7]), 39 nM in the assay with CMV (setting [4]), 39 nM with CMV (setting [5]) and 11 nM in the assay on VZV Ellen strain. Further, the IC50 on CMV-polymerase (setting [6]) was 2 nM.
Regarding `Cn1nc(C(=O)NCc2ccc(Cl)cc2)c2c1C(=O)N(CC1(S(=O)(=O)C(C)(CO)CO)CC1)CC2` [Example 175, N-(4-chlorobenzyl)-6-((1-((1,3-dihydroxy-2-methylpropan-2-yl)sulfonyl)cyclopropyl)methyl)-1-methyl-7-oxo-4,5,6,7-tetrahydro-1H-pyrazolo[3,4-c]pyridine-3-carboxamide], the EC50 came to 58 nM in assay [1] (setting [3]); 26 nM in the assay with CMV (setting [4]); 26 nM in the assay with CMV (setting [5]); 8 nM in assay [2]; 34 nM in the assay with VZV Ellen strain. At CMV-polymerase (CMV-polymerase Biochemical IC50), this compound gave an IC50 of 3 nM.
`Cn1nc(C(=O)NCc2ccc(C#N)cc2)c2c1C(=O)N(CC1(S(=O)(=O)C(C)(C)[C@H](O)CO)CC1)CC2` [Example 193, (R)-N-(4-Cyanobenzyl)-6-((1-((3,4-dihydroxy-2-methylbutan-2-yl)sulfonyl)cyclopropyl)methyl)-1-methyl-7-oxo-4,5,6,7-tetrahydro-1H-pyrazolo[3,4-c]pyridine-3-carboxamide]: the EC50 in assay [1] (setting [3]) was found to be 58 nM; with CMV (setting [5]), 26 nM; in assay [2] it was 8 nM; in the assay on VZV Ellen strain it was 34 nM. Besides, at CMV-polymerase (setting [6]), the IC50 amounted to 1 nM.
For `Cn1nc(C(=O)NCc2ccc(C#N)cc2)c2c1C(=O)N(CC1(S(=O)(=O)C(C)(C)[C@H](O)CN)CC1)CC2` [Example 198, (R)-6-((1-((4-amino-3-hydroxy-2-methylbutan-2-yl)sulfonyl)cyclopropyl)methyl)-N-(4-cyanobenzyl)-1-methyl-7-oxo-4,5,6,7-tetrahydro-1H-pyrazolo[3,4-c]pyridine-3-carboxamide], the EC50 was found to be 50 nM in assay [1] (setting [7]); 18 nM in the assay with CMV (setting [4]); 22 nM with CMV (setting [5]); 4 nM in assay [2]; 39 nM with VZV Ellen strain.
`CC(C)(O)Cn1nc(C(=O)NCc2ccc(C#N)cc2)c2c1C(=O)N(CC1(S(=O)(=O)C3(CO)CC3)CC1)CC2` [Example 234, N-(4-Cyanobenzyl)-1-(2-hydroxy-2-methylpropyl)-6-((1-((1-(hydroxymethyl)cyclopropyl)sulfonyl)cyclopropyl)methyl)-7-oxo-4,5,6,7-tetrahydro-1H-pyrazolo[3,4-c]pyridine-3-carboxamide]: the EC50 stood at 83 nM in assay [1] (setting [3]); 49 nM with CMV (setting [4]); 49 nM with CMV (setting [5]); 11 nM in assay [2]; 115 nM with VZV Ellen strain. In addition, the IC50 on CMV-polymerase (setting [6]) came to 1 nM.
As to `Cn1nc(C(=O)NCc2ccc(C#N)cc2)c2c1C(=O)N(CC1(S(=O)(=O)C(C)(CO)CO)CC1)CC2` [Example 176, N-(4-Cyanobenzyl)-6-((1-((1,3-dihydroxy-2-methylpropan-2-yl)sulfonyl)cyclopropyl)methyl)-1-methyl-7-oxo-4,5,6,7-tetrahydro-1H-pyrazolo[3,4-c]pyridine-3-carboxamide], the EC50 came out at 95 nM in assay [1] (setting [3]); 52 nM in the assay with CMV (setting [4]); 52 nM with CMV (setting [5]); 14 nM in assay [2]; 74 nM with VZV Ellen strain. Besides, the values for the IC50 on HSV-polymerase and at CMV-polymerase (setting [6]) were 39 nM and 2 nM, respectively.

As a reminder, the EC50 is the concentration giving half of the maximal effect. What is called IC50 is the point on the concentration scale where inhibition reaches its midpoint.

Values taken from US12338220B2, “Antiviral pyrazolopiridinone compounds” (Novartis AG, priority 2019, dated 2025).
